US20260028354A1, “TETRAHYDRONAPHTHALENE DERIVATIVES AS ESTROGEN RECEPTOR DEGRADERS” (REGENT OF THE UNIVERSITY OF MICHIGAN, priority 2022, published 2026)
Like-named read-outs stand apart in the source and are kept apart here.

Tests used:
ER in MCF-7 cells = ER in MCF-7 cells (Homo sapiens (Human), UniProt P03372); assay: In-cell Western (ICW) ER degradation assay in MCF-7 cells; format: cell-based; details: for DC50: MCF-7, ER degradation, read-out: MCF7 DC50
MCF-7 cells = assay: CellTiter-Glo (CTG) cell proliferation assay in MCF-7 cells; format: cell-based; details: Homo sapiens, MCF7, 144 h, MCF-7 cell proliferation, Day 6
Source text: CellTiter-Glo® (CTG) Assays in MCF-7 and T47D Cell Lines.
In vitro Assay: MCF-7 and T47D CTG assay

[1] = MCF7, read-out: MCF7 Dmax, MCF-7, maximal ER degradation, 16 hrs treatment
[2] = MCF7, MCF-7, maximal ER degradation, 16 hrs treatment, read-out: MCF7 Dmax

ER in MCF-7 cells, sequence (P03372 whole entry): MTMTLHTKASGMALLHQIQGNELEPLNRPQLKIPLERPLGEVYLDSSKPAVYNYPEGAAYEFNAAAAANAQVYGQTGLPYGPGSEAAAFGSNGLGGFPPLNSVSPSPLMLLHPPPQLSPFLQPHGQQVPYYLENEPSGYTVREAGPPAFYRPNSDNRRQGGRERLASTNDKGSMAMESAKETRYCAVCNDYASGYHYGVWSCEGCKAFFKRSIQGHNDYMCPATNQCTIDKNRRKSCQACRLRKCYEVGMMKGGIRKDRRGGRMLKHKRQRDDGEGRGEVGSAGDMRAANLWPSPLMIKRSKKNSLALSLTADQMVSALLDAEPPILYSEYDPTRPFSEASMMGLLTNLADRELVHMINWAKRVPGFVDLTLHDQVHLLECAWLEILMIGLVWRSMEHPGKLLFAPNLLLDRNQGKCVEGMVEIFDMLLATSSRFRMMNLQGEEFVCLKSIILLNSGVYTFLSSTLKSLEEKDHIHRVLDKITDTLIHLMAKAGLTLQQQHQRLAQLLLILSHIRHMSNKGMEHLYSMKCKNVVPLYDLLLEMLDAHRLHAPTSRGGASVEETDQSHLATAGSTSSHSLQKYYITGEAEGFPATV

| Dmax (ER in MCF-7 cells; [2]) [%] | Compound | Dmax (ER in MCF-7 cells; [1]) [%] | DC50 (ER in MCF-7 cells; 16 hrs treatment) [nM] | IC50 (MCF-7 cells) [nM] |
| --- | --- | --- | --- | --- |
|  | O=C1CC[C@H](N2Cc3c(ccc4c3OCC43CCN(CC4CCC5(CC4)CN(c4ccc([C@@H]6c7ccc(O)cc7CC[C@@H]6c6ccccc6)cc4)C5)CC3)C2=O)C(=O)N1 [Compound A177, (S)-3-(1′-((2-(4-((1R,2S)-6-hydroxy-2-phenyl-1,2,3,4-tetra-hydronaphthalen-1-yl)phenyl)-2-azaspiro[3.5]nonan-7-yl)-methyl)-6-oxo-6,8-dihydro-2H,7H-spiro[furo[2,3-e]iso-indole-3,4′-piperidin]-7-yl)-piperidine-2,6-dione] | > 75 | < 1 | > 100 |
| > 75 | O=C1CC[C@H](N2Cc3c(ccc4c3OC[C@H]3CN(CC5CC6(CCN(c7cnc(C8c9ccc(O)cc9CCC8c8ccccc8)cn7)CC6)C5)CCN43)C2=O)C(=O)N1 (stereo partly drawn) [Compound A195, (3S)-3-((5aR)-7-((7-(5-(6-hydroxy-2-phenyl-1,2,3,4-tetra-hydronaphthalen-1-yl)pyrazin-2-yl)-7-azaspiro[3.5]nonan-2-yl)methyl)-1-oxo-1,3,5,5a,6,7,8,9-octahydro-2H-pyrazino [1′,2′:4,5][1,4]oxazino[2,3-e]isoindol-2-yl)piperidine-2,6-dione] |  | < 1 | > 100 |
|  | COc1cc2c(c3c1C(=O)N([C@H]1CCC(=O)NC1=O)C3)OCC21CCN(C[C@@H]2CCC3(CCN(c4ccc([C@@H]5c6ccc(O)cc6CC[C@@H]5c5ccccc5)cc4)CC3)OC2)CC1 [Compound A236, (S)-3-(1′-(((S)-9-(4-((1R,2S)-6-hydroxy-2-phenyl-1,2,3,4-tetrahydronaphthalen-1-yl)phenyl)-1-oxa-9-azaspiro[5.5]undecan-3-yl)methyl)-5-methoxy-6-oxo-6,8-dihydro-2H,7H-spiro[furo[2,3-e]isoindole-3,4′-piperidin]-7-yl)piperidine-2,6-dione] | > 75 | < 1 | 10 to 100 |
|  | COc1cc(N2CC(CCN3CCC4(CC3)COc3c4ccc4c3CN([C@H]3CCC(=O)NC3=O)C4=O)C2)c(F)cc1[C@@H]1c2ccc(O)cc2CC[C@@H]1c1ccccc1 [Compound A206, (S)-3-(1′-(2-(1-(2-fluoro-4-((1S,2S)-6-hydroxy-2-phenyl-1,2,3,4-tetrahydronaphthalen-1-yl)-5-methoxyphenyl)azet-idin-3-yl)ethyl)-6-oxo-6,8-dihydro-2H,7H-spiro[furo[2,3-e]isoindole-3,4′-piperidin]-7-yl)piperidine-2,6-dione] | 50 to 75 | 1 to 10 | > 100 |
|  | COc1cc(N2CCC(CCN3CCC4(CC3)COc3c4ccc4c3CN([C@H]3CCC(=O)NC3=O)C4=O)CC2)c(F)cc1[C@@H]1c2ccc(O)cc2CC[C@@H]1c1ccccc1 [Compound A187, (S)-3-(1′-(2-(1-(2-fluoro-4-((1S,2S)-6-hydroxy-2-phenyl-1,2,3,4-tetrahydronaphthalen-1-yl)-5-methoxyphenyl)piperidin-4-yl)ethyl)-6-oxo-6,8-dihydro-2H,7H-spiro[furo[2,3-e]iso-indole-3,4′-piperidin]-7-yl)-piperidine-2,6-dione] | > 75 | < 1 | 10 to 100 |
|  | COc1c([C@@H]2c3ccc(O)cc3CC[C@@H]2c2ccccc2)ccc(N2CCC3(CC2)CC(CN2CCC4(CC2)COc2c4ccc4c2CN([C@H]2CCC(=O)NC2=O)C4=O)C3)c1F [Compound A198, (S)-3-(1′-((7-(2-fluoro-4-((1S, 2S)-6-hydroxy-2-phenyl-1,2,3,4-tetrahydronaphthalen-1-yl)-3-methoxyphenyl)-7-aza-spiro[3.5]nonan-2-yl)methyl)-6-oxo-6,8-dihydro-2H,7H-spiro[furo[2,3-e]isoindole-3,4′-piperidin]-7-yl)piperidine-2,6-dione] | 50 to 75 | < 1 | 10 to 100 |
| > 75 | COC1(CCN2CCN3c4ccc5c(c4OC[C@H]3C2)CN([C@H]2CCC(=O)NC2=O)C5=O)CCN(c2ccc([C@@H]3c4ccc(O)cc4CC[C@@H]3c3ccccc3)cc2)CC1 [Compound A192, (S)-3-((R)-7-(2-(1-(4-((1R,2S)-6-hydroxy-2-phenyl-1,2,3,4-tetrahydronaphthalen-1-yl)-phenyl)-4-methoxypiperidin-4-yl)cthyl)-1-oxo-1,3,5,5a,6,7,8,9-octahydro-2H-pyrazino[1′,2′: 4,5][1,4]oxazino[2,3-e]isoindol-2-yl)piperidine-2,6-dione] |  | < 1 | > 100 |
|  | COc1cc(N2CCC3(CC2)CC(CN2CCC4(CC2)COc2c4cc(C)c4c2CN([C@H]2CCC(=O)NC2=O)C4=O)C3)c(F)cc1[C@@H]1c2ccc(O)cc2CC[C@@H]1c1ccccc1 [Compound A203, (S)-3-(1′-((7-(2-fluoro-4-((1S,2S)-6-hydroxy-2-phenyl-1,2,3,4-tetrahydronaphthalen-1-yl)-5-methoxyphenyl)-7-azaspiro[3.5]nonan-2-yl)methyl)-5-methyl-6-oxo-6,8-dihydro-2H,7H-spiro[furo[2,3-e]isoindole-3,4′-piperidin]-7-yl)piperidine-2,6-dione] | > 75 | < 1 | < 10 |
|  | COc1cc2c(c3c1C(=O)N([C@H]1CCC(=O)NC1=O)C3)OCC21CCN(C[C@H]2CCC3(CCN(c4ccc([C@@H]5c6ccc(O)cc6CC[C@@H]5c5ccccc5)cc4)CC3)OC2)CC1 [Compound A235, (S)-3-(1′-(((R)-9-(4-((1R,2S)-6-hydroxy-2-phenyl-1,2,3,4-tetrahydronaphthalen-1-yl)phenyl)-1-oxa-9-azaspiro[5.5]undecan-3-yl)methyl)-5-methoxy-6-oxo-6,8-dihydro-2H,7H-spiro[furo[2,3-e]isoindole-3,4′-piperidin]-7-yl)piperidine-2,6-dione] | > 75 | < 1 | < 10 |
| > 75 | COc1cc(N2CCC(CCN3CCN4c5cc6c(cc5OC[C@@H]4C3)C(=O)N([C@H]3CCC(=O)NC3=O)C6)CC2)c(F)cc1[C@@H]1c2ccc(O)cc2CC[C@@H]1c1ccccc1 [Compound A188, (S)-3-((S)-3-(2-(1-(2-fluoro-4-((1S,2S)-6-hydroxy-2-phenyl-1,2,3,4-tetrahydronaphthalen-1-yl)-5-methoxyphenyl)piper-idin-4-yl)ethyl)-8-oxo-1,2,3,4,4a,5,8,10-octahydro-9H-pyr-azino[1′,2′:4,5][1,4]oxazino [2,3-f]isoindol-9-yl)piperidine-2,6-dione] |  | < 1 | 10 to 100 |
| > 75 | O=C1CC[C@H](N2Cc3cc4c(cc3C2=O)OC[C@@H]2CN(CC3CC5(CCN(c6cnc(C7c8ccc(O)cc8CCC7c7ccccc7)cn6)CC5)C3)CCN42)C(=O)N1 (stereo partly drawn) [Compound A194, (3S)-3-((4aS)-3-((7-(5-(6-hydroxy-2-phenyl-1,2,3,4-tetra-hydronaphthalen-1-yl)pyrazin-2-yl)-7-azaspiro[3.5]nonan-2-yl)methyl)-8-oxo-1,2,3,4,4a,5,8,10-octahydro-9H-pyrazino [1′,2′:4,5][1,4]oxazino[2,3-f]isoindol-9-yl)piperidine-2,6-dione] |  | 1 to 10 | > 100 |
|  | O=C1CC[C@H](N2Cc3c4c(cc(Cl)c3C2=O)C2(CCN(C[C@@H]3CCC5(CCN(c6ccc([C@@H]7c8ccc(O)cc8CC[C@@H]7c7ccccc7)cc6)CC5)OC3)CC2)CO4)C(=O)N1 [Compound A233, (S)-3-(5-chloro-1′-(((S)-9-(4-((1R,2S)-6-hydroxy-2-phenyl-1,2,3,4-tetrahydronaphthalen-1-yl)phenyl)-1-oxa-9-azaspiro[5.5]undecan-3-yl)methyl)-6-oxo-6,8-dihydro-2H,7H-spiro[furo[2,3-e]isoindole-3,4′-piperidin]-7-yl)piperidine-2,6-dione] | > 75 | < 1 | < 10 |
|  | COc1cc(N2CCC3(CC[C@@H](CN4CCC5(CC4)COc4c5cc(Cl)c5c4CN([C@H]4CCC(=O)NC4=O)C5=O)CO3)CC2)c(F)cc1[C@@H]1c2ccc(O)cc2CC[C@@H]1c1ccccc1 [Compound A234, (S)-3-(5-chloro-1′-(((S)-9-(2-fluoro-4-((1S,2S)-6-hydroxy-2-phenyl-1,2,3,4-tetrahydronaphthalen-1-yl)-5-methoxyphenyl)-1-oxa-9-azaspiro[5.5]undecan-3-yl)methyl)-6-oxo-6,8-dihydro-2H,7H-spiro[furo[2,3-e]isoindole-3,4′-piperidin]-7-yl)piperidine-2,6-dione] | > 75 | < 1 | < 10 |
|  | O=C1CC[C@H](N2Cc3c(ccc4c3OCC43CCN(CC4CC5(CCN(c6ccc([C@@H]7c8ccc(O)cc8CC[C@@H]7c7ccccc7)cc6)CC5)C4)CC3)C2=O)C(=O)N1 [Compound A181, (S)-3-(1′-((7-(4-((1R,2S)-6-hydroxy-2-phenyl-1,2,3,4-tetra-hydronaphthalen-1-yl)phenyl)-7-azaspiro[3.5]nonan-2-yl)-methyl)-6-oxo-6,8-dihydro-2H, 7H-spiro[furo[2,3-e]isoindole-3,4′-piperidin]-7-yl)piperidine-2,6-dione] | > 75 | < 1 | > 100 |
|  | COc1cc(N2CCC(CCN3CCC4(CC3)COc3c4cc(OC)c4c3CN([C@H]3CCC(=O)NC3=O)C4=O)CC2)c(F)cc1[C@@H]1c2ccc(O)cc2CC[C@@H]1c1ccccc1 [Compound A226, (S)-3-(1′-(2-(1-(2-fluoro-4-((1S,2S)-6-hydroxy-2-phenyl-1,2,3,4-tetrahydronaphthalen-1-yl)-5-methoxyphenyl)piperidin-4-yl)ethyl)-5-methoxy-6-oxo-6,8-dihydro-2H,7H-spiro[furo[2,3-e]isoindole-3,4′-piperidin]-7-yl)piperidine-2,6-dione] | > 75 | < 1 | < 10 |
